Measured values as given in PMC9542405, “Design, synthesis and antitumor activity of 5-trifluoromethylpyrimidine derivatives as EGFR inhibitors” (Journal of Enzyme Inhibition and Medicinal Chemistry, 2022).

Assays:
[1] = system: MCF-7 cells; test: In vitro activity against cancer cell lines (MTT), MCF-7; assay type: cell-based; conditions: Homo sapiens, MCF7, mean ± SD of three replicates
Description: (§1) Co., Ltd. A549 (Human non-small-cell lung cancer cell line) cells, MCF-7 (Human breast cancer
(§2) cell line) cells, and PC-3 (Human prostate cancer cell line) cells. They were all purchased from the
(§3) Shanghai Cell Bank of the Chinese Academy of Sciences. NRK-52E (Normal rat kidney cell line)
(§4) cells donated by Guizhou Medicinal University were also used to evaluate the cytotoxicity.

[2] = system: PC-3 cells; test: In vitro activity against cancer cell lines (MTT), PC-3; assay type: cell-based; conditions: Homo sapiens, mean ± SD of three replicates
Description: as §1, §2, §3, §4

[3] = system: A549 cells; test: A549 cell apoptosis (Annexin V-FITC/PI flow cytometry); conditions: 48 h
Description: And then, the original culture medium was replaced with 0.1 μM, 0.5 μM, and 1 μM compounds (Geftinib or the testing compound) in the cell incubator for 48 h. After trypsin digests cells, the cells were collected after centrifugation, resuspended with PBS and counted. After suspension of the cells with Annexin V – FITC binding solution and mixing with PI staining solution, the fluorescence density was detected by flow cytometry in BD Accuri C6 flow cytometry, which was provided by School of Pharmaceutical Sciences, Guizhou University, China.

[4] = system: NRK-52E (Normal rat kidney cell line) cells; test: Cytotoxicity evaluation against normal cell line (MTT); assay type: cell-based; conditions: 10 μM
Description: Three tumour cells A549, MCF-7, and PC-3 with high expression of EGFR^wt were used to investigate antitumor activities of compounds 9a–9x. NRK-52E (Normal rat kidney cell line) cells were used to evaluate cytotoxicity of compounds 9a–9x. They were all tested with typical MTT method, and Gefitinib were used as positive controls.
NRK-52E (Normal rat kidney cell line) cells were used to evaluate cytotoxicity of compounds 9a–9x.

[5] = system: A549 cells; test: In vitro activity against cancer cell lines (MTT), A549; assay type: cell-based; conditions: Homo sapiens, mean ± SD of three replicates
Description: as §1, §2, §3, §4

[6] = system: A549 cells; test: A549 cell cycle analysis (flow cytometry); assay type: cell-based, Human
[7] = target: T1, EGFR^wt-TK (Homo sapiens, UniProt P00533); test: In vitro EGFR^wt-TK assay (ELISA kit); assay type: biochemical; conditions: mean ± SD of three replicates; for inhibition at 1 µM: read-out: EGFR^wt-TK inhibition rate
T1 construct: purchased
T1 sequence (P00533 25-1210): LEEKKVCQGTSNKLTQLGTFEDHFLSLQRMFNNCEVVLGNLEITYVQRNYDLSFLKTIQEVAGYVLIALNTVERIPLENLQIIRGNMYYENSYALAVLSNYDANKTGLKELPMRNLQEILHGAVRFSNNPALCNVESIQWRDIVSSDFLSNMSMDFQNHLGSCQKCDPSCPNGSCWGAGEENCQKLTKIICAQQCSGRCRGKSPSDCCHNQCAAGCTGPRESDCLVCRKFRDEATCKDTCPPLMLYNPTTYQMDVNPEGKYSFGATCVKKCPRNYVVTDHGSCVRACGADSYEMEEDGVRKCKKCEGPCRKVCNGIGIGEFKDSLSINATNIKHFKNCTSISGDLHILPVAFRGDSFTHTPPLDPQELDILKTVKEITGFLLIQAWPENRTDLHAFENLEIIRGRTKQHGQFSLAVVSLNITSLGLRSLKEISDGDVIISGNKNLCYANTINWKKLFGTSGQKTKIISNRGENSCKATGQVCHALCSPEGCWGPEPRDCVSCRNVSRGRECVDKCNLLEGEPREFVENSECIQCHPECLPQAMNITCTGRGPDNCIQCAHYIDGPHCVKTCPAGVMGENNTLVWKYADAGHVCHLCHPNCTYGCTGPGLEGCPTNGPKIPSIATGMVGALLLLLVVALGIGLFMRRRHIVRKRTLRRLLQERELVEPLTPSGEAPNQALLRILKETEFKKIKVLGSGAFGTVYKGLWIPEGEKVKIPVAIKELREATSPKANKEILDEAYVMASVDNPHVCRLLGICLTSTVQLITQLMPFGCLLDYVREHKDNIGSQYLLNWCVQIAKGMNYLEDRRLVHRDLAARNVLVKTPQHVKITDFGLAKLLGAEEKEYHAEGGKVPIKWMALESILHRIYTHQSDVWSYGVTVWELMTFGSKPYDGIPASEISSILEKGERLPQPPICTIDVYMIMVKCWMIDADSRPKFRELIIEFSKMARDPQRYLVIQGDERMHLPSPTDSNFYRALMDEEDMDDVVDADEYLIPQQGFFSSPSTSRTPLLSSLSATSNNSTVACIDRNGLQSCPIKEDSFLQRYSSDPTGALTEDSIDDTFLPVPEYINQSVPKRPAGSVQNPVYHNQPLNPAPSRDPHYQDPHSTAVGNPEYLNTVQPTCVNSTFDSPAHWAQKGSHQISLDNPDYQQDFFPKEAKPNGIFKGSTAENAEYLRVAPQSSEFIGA
Description: The IC50 values of target compounds against EGFR^wt were calculated from the dose − response curve under Graph-Pad Prism 9, which was tested at the different concentrations.

IC50 [1]	IC50 [2]	IC50 [5]	EGFR^wt-TK inhibition rate ([7]; 1 μM)	inhibition at 1 µM ([7]; 1 μM)	IC50 [7]	melting point	Structure (SMILES)	Q2-4 (early apoptosis) ([3]; A549, 0.1 μM)	Q2-4 (early apoptosis) ([3]; A549, 1 μM)	inhibition against NRK-52E cells [4]	Proportion of A549 cells at G2/M ([6]; 0.1 μM)	Proportion of A549 cells at G2/M ([6]; 1 μM)	Proportion of A549 cells at G2/M ([6]; 0.5 μM)
3.24 ± 0.16 µM	5.12 ± 0.73 µM	0.35 ± 0.11 µM	62.73 ± 1.86%	> 50%	91 ± 8.4 nM	237.5 to 238.8 °C	CNC(=O)c1sccc1Nc1nc(Nc2ccc(NC(=O)C=Cc3cccc(F)c3)cc2)ncc1C(F)(F)F [Compound 9u, 3–(2-{4-[3-(3-Fluoro-phenyl)-acryloylamino]-phenylamino} -5-trifluoromethyl-pyrimidin-4-ylamino)-thiophene-2-carboxylic acid methylamide]	3.39%	52.96%	less than 5%	19.79%	43.92%	–
6.15 ± 0.77 µM	10.6 ± 1.74 µM	3.98 ± 0.83 µM	–	47.7 ± 1.72%	–	> 250 °C	CNC(=O)c1sccc1Nc1nc(Nc2ccc(NC(=O)Nc3cccc(F)c3)cc2)ncc1C(F)(F)F [Compound 9w, 3-(2-{4-[3–(3-Fluoro-phenyl)-ureido]-phenylamino}-5-trifluoromethyl-pyrimidin-4-ylamino)-thiophene-2-carboxylic acid methylamide]	–	–	–	–	–	–
6.38 ± 0.97 µM	11.5 ± 1.23 µM	4.25 ± 0.86 µM	–	44.5 ± 1.84%	–	> 250 °C	CNC(=O)c1sccc1Nc1nc(Nc2ccc(NC(=O)Nc3ccc(F)cc3)cc2)ncc1C(F)(F)F [Compound 9x, 3–(2-{4-[3–(4-Fluoro-phenyl)-ureido]-phenylamino}-5-trifluoromethyl-pyrimidin-4-ylamino)-thiophene-2-carboxylic acid methylamide]	–	–	–	–	–	–
–	–	–	–	–	–	–	COc1cc2ncnc(Nc3ccc(F)c(Cl)c3)c2cc1OCCCN1CCOCC1 [Gefitinib]	1.03%	11.98%	–	17.32%	21.45%	20.72%
